From ChEMBL document CHEMBL5143685, “Valorisation of the diterpene podocarpic acid - Antibiotic and antibiotic enhancing activities of polyamine conjugates” (Bioorg Med Chem, 2022)
Values after ≈ are worked out from the molar mass of the structure shown.

Assays:
Cryptococcus neoformans = test: Antifungal activity against Cryptococcus neoformans ATCC 208821 assessed as fungal growth inhibition incubated for 36 hrs by resazurin dye based analysis; format: functional
Acinetobacter baumannii = test: Antibacterial activity against Acinetobacter baumannii ATCC 19606 assessed as inhibition of bacterial growth measured after 18 hrs by resazurin dye based analysis; format: functional
Klebsiella pneumoniae = test: Antibacterial activity against Klebsiella pneumoniae ATCC 700603 assessed as inhibition of bacterial growth measured after 18 hrs by resazurin dye based analysis; format: functional
[1] = Cytotoxicity against HEK293 cells assessed as cell growth inhibition measured after 20 hrs by resazurin dye based assay; format: toxicity; settings: human
Staphylococcus aureus = test: Antibacterial activity against methicillin-resistant Staphylococcus aureus ATCC 43300 assessed as inhibition of bacterial growth measured after 18 hrs by resazurin dye based analysis; format: functional
Candida albicans = test: Antifungal activity against Candida albicans ATCC 90028 assessed as fungal growth inhibition incubated for 36 hrs by resazurin dye based analysis; format: functional
Escherichia coli = test: Antibacterial activity against Escherichia coli ATCC 25922 assessed as inhibition of bacterial growth measured after 18 hrs by resazurin dye based analysis; format: functional
Pseudomonas aeruginosa = test: Antibacterial activity against Pseudomonas aeruginosa ATCC 27853 assessed as inhibition of bacterial growth measured after 18 hrs by resazurin dye based analysis; format: functional

Compound	MIC (Cryptococcus neoformans) [µM]	MIC (Acinetobacter baumannii) [µM]	MIC (Klebsiella pneumoniae) [µM]	IC50 at 20 h [1] [µM]	MIC (Staphylococcus aureus) [µM]	MIC (Candida albicans) [µM]	MIC (Escherichia coli) [µM]	MIC (Pseudomonas aeruginosa) [µM]
C[C@]1(C(=O)O)CCC[C@]2(C)c3cc(OC(=O)CCCNCCCCCCCCCCCCNCCCNC(=O)Oc4ccc5c(c4)[C@@]4(C)CCC[C@](C)(C(=O)O)[C@@H]4CC5)ccc3CC[C@@H]12.O=C(O)C(F)(F)F.O=C(O)C(F)(F)F	3.5	> 28	> 28	> 28	14	> 28	> 28	> 28
C[C@]1(C(=O)NCCCNCCCCCCCCN)CCC[C@]2(C)c3cc(OC(=O)NCCCNCCCCCCCCN)ccc3CC[C@@H]12.O=C(O)C(F)(F)F.O=C(O)C(F)(F)F.O=C(O)C(F)(F)F.O=C(O)C(F)(F)F	> 28	> 28	> 28	> 28	> 28	> 28	> 28	> 28
COLISTIN	–	0.2	0.2	–	–	–	0.1	0.2
C[C@]1(C(=O)NCCCNCCCCCCCCCCNCCCNC(=O)[C@@]2(C)CCC[C@]3(C)c4cc(O)ccc4CC[C@@H]23)CCC[C@]2(C)c3cc(O)ccc3CC[C@@H]12.O=C(O)C(F)(F)F.O=C(O)C(F)(F)F	3.89	> 32.1	> 31.1	0.87	≤ 0.24	> 32.1	> 31.1	> 31.1
C[C@]1(C(=O)O)CCC[C@]2(C)c3cc(O)ccc3CC[C@@H]12 [PODOCARIC ACID]	> 117	> 117	> 117	–	> 117	> 117	> 117	> 117
OC(Cn1cncn1)(Cn1cncn1)c1ccc(F)cc1F [FLUCONAZOLE]	26 (≈ 7.96 µg/mL)	–	–	–	–	0.4 (≈ 0.123 µg/mL)	–	–
C[C@]1(C(=O)NCCCNCCCCCCCCCCN)CCC[C@]2(C)c3cc(O)ccc3CC[C@@H]12.O=C(O)C(F)(F)F.O=C(O)C(F)(F)F	> 44.8	> 44.8	> 44.8	> 44.8	> 44.8	> 44.8	> 44.8	> 44.8
C[C@]1(C(=O)O)CCC[C@]2(C)c3cc(OC(=O)NCCCNCCCCCCCCCCCCN)ccc3CC[C@@H]12.O=C(O)C(F)(F)F.O=C(O)C(F)(F)F	> 32.8	> 32.8	> 32.8	> 32.8	> 32.8	32.8	> 32.8	> 32.8
COC(=O)[C@@]1(C)CCC[C@]2(C)c3cc(OC(=O)CCCNCCCCCCCNCCCNC(=O)Oc4ccc5c(c4)[C@@]4(C)CCC[C@](C)(C(=O)OC)[C@@H]4CC5)ccc3CC[C@@H]12.O=C(O)C(F)(F)F.O=C(O)C(F)(F)F	7.26	> 29.1	> 29.1	> 29.1	≤ 0.23	≤ 0.23	> 29.1	> 29.1
COC(=O)[C@@]1(C)CCC[C@]2(C)c3cc(OC(=O)CCCNCCCCCCNCCCNC(=O)Oc4ccc5c(c4)[C@@]4(C)CCC[C@](C)(C(=O)OC)[C@@H]4CC5)ccc3CC[C@@H]12.O=C(O)C(F)(F)F.O=C(O)C(F)(F)F	0.46	> 29.4	> 29.4	4.68	≤ 0.23	≤ 0.23	14.7	> 29.4
C[C@@]12CCC[C@](C)(C(=O)O)[C@H]1CCc1ccc(OC(=O)CCCNCCCCNCCCNC(=O)Oc3ccc4c(c3)[C@@]3(C)CCC[C@](C)(C(=O)O)[C@@H]3CC4)cc12.O=C(O)C(F)(F)F.O=C(O)C(F)(F)F	7.76	> 31	> 31	> 31	> 31	7.76	> 31	> 31
C[C@]1(C(=O)O)CCC[C@]2(C)c3cc(OC(=O)CCCNCCCCCCCNCCCNC(=O)Oc4ccc5c(c4)[C@@]4(C)CCC[C@](C)(C(=O)O)[C@@H]4CC5)ccc3CC[C@@H]12.O=C(O)C(F)(F)F.O=C(O)C(F)(F)F	7.45	> 29.8	> 29.8	> 29.8	> 29.8	29.8	> 29.8	> 29.8
CN[C@H](CC(C)C)C(=O)N[C@H]1C(=O)N[C@@H](CC(N)=O)C(=O)N[C@H]2C(=O)N[C@H]3C(=O)N[C@H](C(=O)N[C@H](C(=O)O)c4cc(O)cc(O)c4-c4cc3ccc4O)[C@H](O)c3ccc(c(Cl)c3)Oc3cc2cc(c3O[C@@H]2O[C@H](CO)[C@@H](O)[C@H](O)[C@H]2O[C@H]2C[C@](C)(N)[C@H](O)[C@H](C)O2)Oc2ccc(cc2Cl)[C@H]1O [VANCOMYCIN]	–	–	–	–	0.7 (≈ 1.01 µg/mL)	–	–	–
C[C@]1(C(=O)NCCCNCCCCCCCCN)CCC[C@]2(C)c3cc(O)ccc3CC[C@@H]12.O=C(O)C(F)(F)F.O=C(O)C(F)(F)F	> 46.7	> 46.7	> 46.7	> 46.7	46.7	> 46.7	> 46.7	> 46.7
C[C@]1(C(=O)NCCCNCCCCCCCCCCCCNCCCNC(=O)[C@@]2(C)CCC[C@]3(C)c4cc(O)ccc4CC[C@@H]23)CCC[C@]2(C)c3cc(O)ccc3CC[C@@H]12.O=C(O)C(F)(F)F.O=C(O)C(F)(F)F	≤ 0.24	> 30.3	> 30.3	> 30.3	≤ 0.24	7.58	> 30.3	> 30.3
COC(=O)[C@@]1(C)CCC[C@]2(C)c3cc(OC(=O)CCCNCCCCCCCCCCNCCCNC(=O)Oc4ccc5c(c4)[C@@]4(C)CCC[C@](C)(C(=O)OC)[C@@H]4CC5)ccc3CC[C@@H]12.O=C(O)C(F)(F)F.O=C(O)C(F)(F)F	≤ 0.22	> 28	> 28	1.3	3.5	≤ 0.22	> 28	> 28
C[C@]1(C(=O)NCCCNCCCCCCN)CCC[C@]2(C)c3cc(O)ccc3CC[C@@H]12.O=C(O)C(F)(F)F.O=C(O)C(F)(F)F	> 48.6	> 48.6	> 48.6	> 48.6	> 48.6	> 48.6	> 48.6	> 48.6
C[C@]1(C(=O)O)CCC[C@]2(C)c3cc(OC(=O)NCCCNCCCCCCCCCCN)ccc3CC[C@@H]12	> 42.2	> 42.2	> 42.2	–	> 42.2	> 42.2	> 42.2	> 42.2
CC[C@H]1OC(=O)[C@H](C)[C@@H](O[C@H]2C[C@@](C)(OC)[C@@H](O)[C@H](C)O2)[C@H](C)[C@@H](O[C@@H]2O[C@H](C)C[C@H](N(C)C)[C@H]2O)[C@](C)(O)C[C@@H](C)C(=O)[C@H](C)[C@@H](O)[C@]1(C)O [ERYTHROMYCIN]	–	–	–	–	–	–	174 (≈ 128 µg/mL)	–
C[C@]1(C(=O)NCCCNCCCCN)CCC[C@]2(C)c3cc(O)ccc3CC[C@@H]12	> 50.8	> 50.8	> 50.8	–	> 50.8	> 50.8	> 50.8	> 50.8
C[C@]1(C(=O)O)CCC[C@]2(C)c3cc(OC(=O)NCCCNCCCCN)ccc3CC[C@@H]12	> 47.5	> 47.5	> 47.5	–	> 47.5	> 47.5	> 47.5	> 47.5
C[C@H]1c2cccc(O)c2C(=O)C2=C(O)[C@]3(O)C(=O)C(C(N)=O)=C(O)[C@@H](N(C)C)[C@@H]3[C@@H](O)[C@@H]21 [DOXYCYCLINE]	–	–	–	–	–	–	–	90 (≈ 40 µg/mL)
